The test system of the test is 966289-007-R4-J1-PDC complex spheroid viability. Kind of test: Anticancer human tumor 966289-007-R4-J1-PDC patient-derived pancreatic adenocarcinoma cell line growth inhibition [RAS]. As to conditions: for viability, T/C: stronger effect = lower value. A digest of the protocol:
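Agents were tested in combination matrices in half-log decrements from a top concentration at or near clinical Cmax (10 microM if undetermined). Targets were multi-cell spheroids of tumour lines plus HUVEC and MSC stromal cells.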

Setting [1] is: curve of first compound, second compound 0.0316 µM.
Where [2] appears, read: curve of first compound, second compound 0.1 µM.
[3] abbreviates: curve of first compound, second compound 0.316 µM.
Setting [4] is: curve of first compound, second compound 1 µM.
The mark [5] stands for this setting: curve of first compound, second compound 3.16 µM.
The mark [6] stands for this setting: curve of first compound, second compound 10 µM.
Where [7] appears, read: second compound 0.0316 µM, first compound 0.0316 µM.
The mark [8] stands for this setting: second compound 0.0316 µM, first compound 0.1 µM.
Setting [9] is: second compound 0.0316 µM, first compound 0.316 µM.
Where [10] appears, read: second compound 0.0316 µM, first compound 1 µM.
Setting [11] is: second compound 0.1 µM, first compound 0.0316 µM.
Where [12] appears, read: second compound 0.1 µM, first compound 0.1 µM.
Where [13] appears, read: second compound 0.1 µM, first compound 0.316 µM.
The mark [14] stands for this setting: second compound 0.1 µM, first compound 1 µM.
The mark [15] stands for this setting: second compound 0.316 µM, first compound 0.0316 µM.
Where [16] appears, read: second compound 0.316 µM, first compound 0.1 µM.
Setting [17] is: second compound 0.316 µM, first compound 0.316 µM.
Setting [18] is: second compound 0.316 µM, first compound 1 µM.
Where [19] appears, read: second compound 1 µM, first compound 0.0316 µM.
Where [20] appears, read: second compound 1 µM, first compound 0.1 µM.
[21] abbreviates: second compound 1 µM, first compound 0.316 µM.
The mark [22] stands for this setting: second compound 1 µM, first compound 1 µM.
The mark [23] stands for this setting: second compound 3.16 µM, first compound 0.0316 µM.
Where [24] appears, read: second compound 3.16 µM, first compound 0.1 µM.
The mark [25] stands for this setting: second compound 3.16 µM, first compound 0.316 µM.
Where [26] appears, read: second compound 3.16 µM, first compound 1 µM.
[27] abbreviates: second compound 10 µM, first compound 0.0316 µM.
The mark [28] stands for this setting: second compound 10 µM, first compound 0.1 µM.
Setting [29] is: second compound 10 µM, first compound 0.316 µM.
Setting [30] is: second compound 10 µM, first compound 1 µM.

In PubChem BioAssay AID2060897 (Molecular Pharmacology Branch, DTP, NCI, 2025) one finds IC50 and viability, T/C data, which are given here for 4 compounds.

Several values for one entry are separate records, joined by “and”; a condition that tells them apart may be missing. Equal values may be shown once.
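Also: spheroids exposed to agents for one week before readout.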
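For viability, T/C in this document: percent viability relative to DMSO vehicle control wells as 100%.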

On to `CC1(O)CCCC1n1c(=O)c(C(F)F)cc2cnc(NC3CCN(S(C)(=O)=O)CC3)nc21` (stereo unspecified) + C#Cc1c(F)ccc2cc(O)cc(-c3ncc4c(N5CC6CCC(C5)N6)nc(OCC56CCCN5CC(F)C6)nc4c3F)c12, for which the concentration for half-maximal inhibition (IC50) reads like this: under setting [1], 0.142 µM; under setting [2], 0.181 µM; under setting [3], 0.232 µM; under setting [4], 0.22 µM; under setting [5], 0.221 µM; under setting [6], 0.115 µM. Also, the viability, T/C is 138% under setting [7]; 57% under setting [8]; 28.4% under setting [9]; 33.5% under setting [10]; 32.1% (second compound 0.0316 µM, first compound 3.16 µM); 5.74% (second compound 0.0316 µM, first compound 10 µM). Also, the viability, T/C under setting [11] is 124%; the viability, T/C under setting [12] was 70.9%; the viability, T/C under setting [13] was 26.7%; the viability, T/C under setting [14] was 33.5%; the viability, T/C (second compound 0.1 µM, first compound 3.16 µM) is 27.7%; the viability, T/C (second compound 0.1 µM, first compound 10 µM) is 5.83%. For the same compound, the viability, T/C under setting [15] was 128%; the viability, T/C under setting [16] was 71.8%; the viability, T/C under setting [17] was 33.9%; the viability, T/C under setting [18] was 35.5%; the viability, T/C (second compound 0.316 µM, first compound 3.16 µM) was 31.4%; the viability, T/C (second compound 0.316 µM, first compound 10 µM) was 5.81%. The viability, T/C reads like this: under setting [19], 116%; under setting [20], 72.4%; under setting [21], 30.1%; under setting [22], 33%; (second compound 1 µM, first compound 3.16 µM) 33.2%; (second compound 1 µM, first compound 10 µM) 5.07%. Besides, the viability, T/C under setting [23] is 128%; the viability, T/C under setting [24] is 73.5%; the viability, T/C under setting [25] is 30.6%; the viability, T/C under setting [26] was 32.5%; the viability, T/C (second compound 3.16 µM, first compound 3.16 µM) was 33.3%; the viability, T/C (second compound 3.16 µM, first compound 10 µM) was 5.29%. In addition, the viability, T/C reads like this: under setting [27], 106%; under setting [28], 47.8%; under setting [29], 33%; under setting [30], 30.2%; (second compound 10 µM, first compound 3.16 µM) 38.3%; (second compound 10 µM, first compound 10 µM) 0.93%.
Take `CCn1c(-c2cccnc2C(C)OC)c2c3cc(ccc31)N1CCOC(CC(NC(=O)C(C(C)C)N(C)C(=O)C3(F)CCN(C(=O)C#CC(C)(C)N(C)C)CC3)C(=O)N3CCCC(N3)C(=O)OCC(C)(C)C2)C1` (stereo unspecified): the viability, T/C (compound 0.0949 µM) is 83.6% [middle of 8 runs]. Also, the IC50 (compound alone, run of 05/20/2024) is more than 0.3 µM.
In the case of `NC1c2ccccc2OC12CCN(c1cnc3c(N4CCCc5ncccc54)n[nH]c3n1)CC2` (stereo unspecified), the viability, T/C reads like this: (compound 0.1 µM) 92.9% [middle of 4 runs]; (compound 0.316 µM) 107% [middle of 4 runs]; (compound 1 µM) 116% and 63.2% and 101% (2×); (compound 10 µM) 99.6% [middle of 4 runs]. Moreover, the 50% inhibitory concentration (IC50) (curve of compound) was more than 10 µM.
With `O=C(c1ccc(F)c(F)c1Nc1ccc(I)cc1F)N1CC(O)([C@@H]2CCCCN2)C1` + C#Cc1c(F)ccc2cc(O)cc(-c3ncc4c(N5CC6CCC(C5)N6)nc(OCC56CCCN5CC(F)C6)nc4c3F)c12, the half-maximal inhibitory concentration (IC50) stood at 0.397 µM under setting [1]; 0.376 µM under setting [2]; 0.395 µM under setting [3]; 0.409 µM under setting [4]; 0.404 µM under setting [5]; 0.522 µM under setting [6]. Moreover, the viability, T/C was 87% (second compound 0.0316 µM, first compound 0.00316 µM); 68.4% (second compound 0.0316 µM, first compound 0.01 µM); 78% under setting [7]; 66.3% under setting [8]; 55.5% under setting [9]; 31.8% under setting [10]. For the same compound, the viability, T/C was 96.2% (second compound 0.1 µM, first compound 0.00316 µM); 73.7% (second compound 0.1 µM, first compound 0.01 µM); 61.7% under setting [11]; 66.3% under setting [12]; 64.5% under setting [13]; 33.3% under setting [14]. Further, the viability, T/C is 76% (second compound 0.316 µM, first compound 0.00316 µM); 70.3% (second compound 0.316 µM, first compound 0.01 µM); 73% under setting [15]; 60.8% under setting [16]; 56.4% under setting [17]; 33.3% under setting [18]. The viability, T/C is 74.5% (second compound 1 µM, first compound 0.00316 µM); 74.4% (second compound 1 µM, first compound 0.01 µM); 65% under setting [19]; 65.2% under setting [20]; 56.6% under setting [21]; 32.8% under setting [22]. Further, the viability, T/C reads like this: (second compound 3.16 µM, first compound 0.00316 µM) 78.6%; (second compound 3.16 µM, first compound 0.01 µM) 72.9%; under setting [23], 70.7%; under setting [24], 64.4%; under setting [25], 54.2%; under setting [26], 36.3%. Also, the viability, T/C is 77.7% (second compound 10 µM, first compound 0.00316 µM); 69.8% (second compound 10 µM, first compound 0.01 µM); 71.2% under setting [27]; 66% under setting [28]; 59.4% under setting [29]; 39.3% under setting [30].
